Experimental data as given in PubChem BioAssay (NCI).
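48-hour exposure; five concentrations; linearly interpolated endpoints. The concentration for 50% growth inhibition is given as GI50. TGI: total growth inhibition.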

Columns and labels:
Test in all cases: DTP human tumour cell line panel, 48 h
SK-MEL-2 melanoma = tested on: SK-MEL-2 melanoma
UACC-62 melanoma = tested on: UACC-62 melanoma
BT-549 breast = tested on: BT-549 breast
OVCAR-4 ovarian = tested on: OVCAR-4 ovarian
MCF7 breast = tested on: MCF7 breast
SF-539 CNS = tested on: SF-539 CNS
HCT-15 colon = tested on: HCT-15 colon
LOX IMVI melanoma = tested on: LOX IMVI melanoma
MDA-N = tested on: MDA-N
M14 melanoma = tested on: M14 melanoma

Row | Structure (SMILES) | TGI (SK-MEL-2 melanoma) [µM] | TGI (UACC-62 melanoma) [µM] | TGI (BT-549 breast) [µM] | GI50 (OVCAR-4 ovarian) [µM] | TGI (OVCAR-4 ovarian) [µM] | TGI (MCF7 breast) [µM] | TGI (SF-539 CNS) [µM] | TGI (HCT-15 colon) [µM] | TGI (LOX IMVI melanoma) [µM] | TGI (MDA-N) [µM] | TGI (M14 melanoma) [µM]
1 | Nc1ccc(-c2nc3ccccc3s2)cc1C(F)(F)F | 31.3 | 30.6 | 26.4 | 15.9 | 32.9 | 19.4 | 37.7 | 27.6 | 32.4 | 26.4 | 28.7
2 | c1csc(-c2ccc(-c3cccs3)c3nsnc23)c1 | > 100 | > 100 | > 100 | – | > 100 | > 100 | > 51 | > 41.4 | > 61.9 | > 73.4 | > 100
3 | COC(=O)CN1c2nc(C#N)c(C#N)nc2N(CC(=O)OC)c2nc(C#N)c(C#N)nc21 | > 100 | 42.4 | 11.3 | – | 17.3 | 18.4 | 24.2 | > 36 | > 20.1 | > 100 | 5.31
4 | COC(C)(C)[C@@H](O)[C@H]1C[C@H](C)[C@@]2(CC[C@]3(C)[C@@H]2CC[C@@H]2[C@@]4(C)CC[C@@H](OC(C)=O)C(C)(C)[C@@H]4C[C@@H](OC4OC(COC(C)=O)C(O)C(O)C4O)[C@]23C)O1 (some centres not stated) | 19.7 | 18.6 | 15.2 | – | 14.4 | 8.92 | 22.1 | 5.75 | 14.9 | 17.9 | 16.5
5 | CCc1c[n+]([O-])c(C)cc1[N+](=O)[O-] | > 100 | > 100 | > 100 | – | – | > 100 | > 100 | 40.1 | > 100 | > 100 | > 100
6 | O=C1CC(C(O)(C(F)(F)F)C(F)(F)Cl)CCC1C(O)(C(F)(F)F)C(F)(F)Cl (configuration not stated) | > 10 | > 10 | > 10 | – | > 10 | > 10 | > 10 | > 10 | > 10 | > 10 | > 10
7 | CCOC(=O)C(Cl)(Cl)/S(=N\S(=O)(=O)c1ccccc1)NC(=O)c1ccccc1 (configuration not stated) | > 100 | > 100 | > 100 | – | > 100 | > 100 | > 100 | > 100 | > 100 | > 100 | > 100
8 | S=c1[nH]c2ccc(Br)cc2c(=S)s1 | 61.8 | 50.7 | > 100 | – | 38.6 | 40.8 | > 100 | > 100 | > 100 | 54 | 95.3
9 | N#CCc1nc(-c2ccccc2)n[nH]1 | > 100 | > 100 | > 100 | – | > 100 | > 100 | > 100 | > 100 | > 100 | > 100 | > 100
10 | Oc1[nH]c2ccc(Br)cc2c1N=NC(=S)Nc1ccc(F)cc1 | 25.9 | 13.8 | 2.7 | – | 25.7 | 24.7 | 38.8 | 11.8 | 27.1 | 14.4 | –
11 | O=C(O)C(SC1=NNC2(C(=O)N1)c1ccccc1-c1ccccc12)SC1=NNC2(C(=O)N1)c1ccccc1-c1ccccc12 | > 10 | > 10 | > 10 | – | > 10 | > 10 | > 10 | > 10 | > 10 | > 10 | > 10
12 | COc1ccc(S(=O)(=O)N2C(=O)CCC2C(=O)NN)cc1 (configuration not stated) | > 100 | > 100 | > 100 | – | > 100 | > 100 | > 100 | > 100 | > 100 | > 100 | > 100
13 | CN(Cc1ccccc1)c1cc(=O)n(C)c(=O)[nH]1 | > 100 | > 100 | > 100 | – | > 100 | > 100 | > 100 | > 100 | > 100 | > 100 | > 100
14 | C/C1=C\CC[C@@]2(C)O[C@@H]2C[C@@H](C2(C)CO2)CC/C(C)=C/CC1 (some centres not stated) | 71.8 | 40.4 | 42.8 | – | > 100 | 37.1 | 46 | 25 | 28.8 | 69.7 | 54.7
15 | CC(=O)O[C@H]1C(=O)[C@@]2(C)[C@H]([C@H](OC(=O)c3ccc(F)cc3)[C@]3(O)C[C@H](OC(=O)[C@H](O)[C@@H](NC(=O)c4ccccc4)c4ccccc4)C(C)=C1C3(C)C)[C@]1(OC(C)=O)CO[C@@H]1C[C@@H]2O | 9.73 | > 25 | > 25 | – | > 25 | > 25 | 0.0604 | > 25 | 5.56 | 0.00496 | –
16 | Cc1c(N2C(=O)C(Cl)C2c2ccc(Cl)cc2)c(=O)n(-c2ccccc2)n1C (configuration not stated) | > 100 | > 100 | > 100 | – | > 100 | > 100 | > 100 | – | 91.6 | 81.3 | > 100
